Laboratory results as given in ChEMBL document CHEMBL5338720, “Targeting σ2R/TMEM97 with novel aminotetralins” (Eur J Med Chem, 2022).

How the values were obtained:
[1] = molecular target: Sigma non-opioid intracellular receptor 1 (Cavia porcellus, UniProt Q60492); test: Displacement of [3H](+)-pentazocine from sigma 1 receptor in guinea pig brain assessed as inhibition constant by competition binding assay; assay type: tissue-based
[2] = molecular target: T1, Sigma intracellular receptor 2 (Homo sapiens, UniProt Q5BJF2); test: Displacement of [3H]-ditolylguanidine from human sigma 2 receptor/TMEM97 transfected in HEK293 cells assessed as inhibition constant in the presence of (+)-pentazocine by competition binding assay; assay type: cell-based
T1 sequence (Q5BJF2 whole entry): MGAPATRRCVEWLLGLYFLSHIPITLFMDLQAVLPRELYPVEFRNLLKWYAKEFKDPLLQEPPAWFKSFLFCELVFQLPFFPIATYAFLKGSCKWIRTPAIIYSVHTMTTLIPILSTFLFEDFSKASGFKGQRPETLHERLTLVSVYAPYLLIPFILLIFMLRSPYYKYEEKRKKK

[3] = molecular target: T2, Sigma intracellular receptor 2 (Rattus norvegicus, UniProt Q5U3Y7); test: Displacement of [3H]-ditolylguanidine from sigma 2 receptor/TMEM97 in rat PC-12 cells assessed as inhibition constant in the presence of (+)-pentazocine by competition binding assay; assay type: cell-based
T2 sequence (Q5U3Y7 whole entry): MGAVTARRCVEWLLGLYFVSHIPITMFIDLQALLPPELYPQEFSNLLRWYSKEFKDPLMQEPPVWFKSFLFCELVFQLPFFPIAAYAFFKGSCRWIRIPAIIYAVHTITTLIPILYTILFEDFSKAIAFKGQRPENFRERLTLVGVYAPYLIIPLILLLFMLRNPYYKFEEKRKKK

[4] = Selectivity ratio of Ki for displacement of [3H](+)-pentazocine from sigma 1 receptor in guinea pig brain to Ki for displacement of [3H]-ditolylguanidine from sigma 2 receptor/TMEM97 in rat PC-12 cells; assay type: cell-based
[5] = molecular target: T1, Sigma intracellular receptor 2; test: Binding affinity to sigma 2 receptor/TMEM97 (unknown origin) assessed as inhibition constant
[6] = molecular target: T3, Sigma non-opioid intracellular receptor 1 (Homo sapiens, UniProt Q99720); test: Binding affinity to sigma 1 receptor (unknown origin) assessed as inhibition constant
T3 sequence (Q99720 whole entry): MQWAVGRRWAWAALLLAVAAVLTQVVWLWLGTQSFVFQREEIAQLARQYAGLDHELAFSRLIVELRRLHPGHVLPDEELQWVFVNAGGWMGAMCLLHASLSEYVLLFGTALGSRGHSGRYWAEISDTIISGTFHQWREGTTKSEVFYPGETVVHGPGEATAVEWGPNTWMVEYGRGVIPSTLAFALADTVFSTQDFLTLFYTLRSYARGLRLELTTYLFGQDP

[7] = molecular target: T1, Sigma intracellular receptor 2; test: Potency index, ratio of JVW-1601 Ki to test compound Ki for displacement of [3H]-ditolylguanidine from human sigma 2 receptor/TMEM97 transfected in HEK293 cells assessed as inhibition constant in the presence of (+)-pentazocine by competition binding assay; assay type: cell-based
[8] = molecular target: T3, Sigma non-opioid intracellular receptor 1; test: Displacement of [3H](+)-pentazocine from human sigma 1 receptor transfected in HEK293 cells assessed as inhibition constant by competition binding assay; assay type: cell-based
[9] = molecular target: Sodium-dependent noradrenaline transporter (Homo sapiens, UniProt P23975); test: Binding affinity at human Norepinephrine transporter assessed as inhibition constant
Sodium-dependent noradrenaline transporter, sequence (P23975 whole entry): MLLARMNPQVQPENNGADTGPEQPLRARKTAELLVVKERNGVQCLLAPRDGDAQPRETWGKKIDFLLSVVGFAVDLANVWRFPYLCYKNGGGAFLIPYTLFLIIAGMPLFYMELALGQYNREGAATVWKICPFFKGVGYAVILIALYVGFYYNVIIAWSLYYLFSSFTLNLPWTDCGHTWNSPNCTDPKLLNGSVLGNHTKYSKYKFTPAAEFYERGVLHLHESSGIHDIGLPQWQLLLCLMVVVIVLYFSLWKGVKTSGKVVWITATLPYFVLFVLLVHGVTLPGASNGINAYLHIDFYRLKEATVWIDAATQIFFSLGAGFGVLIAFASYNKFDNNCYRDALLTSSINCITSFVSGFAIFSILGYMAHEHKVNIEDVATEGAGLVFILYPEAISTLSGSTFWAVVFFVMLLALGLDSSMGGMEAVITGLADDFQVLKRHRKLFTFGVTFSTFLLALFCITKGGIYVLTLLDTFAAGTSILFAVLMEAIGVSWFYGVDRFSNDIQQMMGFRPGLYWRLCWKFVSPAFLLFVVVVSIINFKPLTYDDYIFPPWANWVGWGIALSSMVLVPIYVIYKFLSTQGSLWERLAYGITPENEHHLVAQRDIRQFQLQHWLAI

Mu-type opioid receptor = Mu-type opioid receptor (Homo sapiens, UniProt P35372); test: Binding affinity at human MOR assessed as inhibition constant
[10] = molecular target: Muscarinic acetylcholine receptor M4 (Homo sapiens, UniProt P08173); test: Binding affinity at human muscarinic M4 receptor assessed as inhibition constant
[11] = molecular target: Muscarinic acetylcholine receptor M3 (Homo sapiens, UniProt P20309); test: Binding affinity at human muscarinic M3 receptor assessed as inhibition constant
[12] = molecular target: Muscarinic acetylcholine receptor M2 (Homo sapiens, UniProt P08172); test: Binding affinity at human muscarinic M2 receptor assessed as inhibition constant
Muscarinic acetylcholine receptor M2, sequence (P08172 whole entry): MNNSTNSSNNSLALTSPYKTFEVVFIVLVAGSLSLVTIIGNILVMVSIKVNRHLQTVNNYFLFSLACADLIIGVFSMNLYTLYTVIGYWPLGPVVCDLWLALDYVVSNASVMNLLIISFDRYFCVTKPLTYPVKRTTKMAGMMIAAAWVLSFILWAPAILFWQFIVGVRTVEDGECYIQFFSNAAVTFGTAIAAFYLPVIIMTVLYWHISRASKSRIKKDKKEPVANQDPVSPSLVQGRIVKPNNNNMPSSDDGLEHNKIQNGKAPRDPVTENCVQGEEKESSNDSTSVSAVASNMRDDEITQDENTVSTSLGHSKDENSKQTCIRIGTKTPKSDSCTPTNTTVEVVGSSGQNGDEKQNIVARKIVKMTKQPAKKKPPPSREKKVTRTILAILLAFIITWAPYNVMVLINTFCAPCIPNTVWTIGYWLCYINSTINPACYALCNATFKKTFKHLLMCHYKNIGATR

[13] = molecular target: Muscarinic acetylcholine receptor M1 (Homo sapiens, UniProt P11229); test: Binding affinity at human muscarinic M1 receptor assessed as inhibition constant
[14] = molecular target: Kappa-type opioid receptor (Homo sapiens, UniProt P41145); test: Binding affinity at human KOR assessed as inhibition constant
[15] = molecular target: GABA-A receptor; anion channel; test: Binding affinity at human GABA A receptor assessed as inhibition constant; assay type: protein-complex assay
[16] = molecular target: Beta-2 adrenergic receptor (Homo sapiens, UniProt P07550); test: Binding affinity to human beta 2 adrenergic receptor assessed as inhibition constant
[17] = molecular target: Beta-1 adrenergic receptor (Homo sapiens, UniProt P08588); test: Binding affinity to human beta 1 adrenergic receptor assessed as inhibition constant
Beta-1 adrenergic receptor, sequence (P08588 whole entry): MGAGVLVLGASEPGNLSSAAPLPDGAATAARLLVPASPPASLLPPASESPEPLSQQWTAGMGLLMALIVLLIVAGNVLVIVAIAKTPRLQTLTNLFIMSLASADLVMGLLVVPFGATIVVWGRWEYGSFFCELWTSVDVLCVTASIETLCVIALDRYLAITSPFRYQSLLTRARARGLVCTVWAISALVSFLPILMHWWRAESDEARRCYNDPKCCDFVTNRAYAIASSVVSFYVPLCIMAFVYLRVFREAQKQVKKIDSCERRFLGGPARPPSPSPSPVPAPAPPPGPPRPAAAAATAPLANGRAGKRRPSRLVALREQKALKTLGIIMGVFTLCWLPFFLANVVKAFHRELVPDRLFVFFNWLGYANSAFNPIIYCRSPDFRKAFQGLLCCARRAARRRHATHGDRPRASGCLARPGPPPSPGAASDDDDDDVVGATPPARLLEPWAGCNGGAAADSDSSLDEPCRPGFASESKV

[18] = molecular target: Alpha-2C adrenergic receptor (Homo sapiens, UniProt P18825); test: Binding affinity to human alpha 2C adrenergic receptor assessed as inhibition constant
Alpha-2C adrenergic receptor, sequence (P18825 whole entry): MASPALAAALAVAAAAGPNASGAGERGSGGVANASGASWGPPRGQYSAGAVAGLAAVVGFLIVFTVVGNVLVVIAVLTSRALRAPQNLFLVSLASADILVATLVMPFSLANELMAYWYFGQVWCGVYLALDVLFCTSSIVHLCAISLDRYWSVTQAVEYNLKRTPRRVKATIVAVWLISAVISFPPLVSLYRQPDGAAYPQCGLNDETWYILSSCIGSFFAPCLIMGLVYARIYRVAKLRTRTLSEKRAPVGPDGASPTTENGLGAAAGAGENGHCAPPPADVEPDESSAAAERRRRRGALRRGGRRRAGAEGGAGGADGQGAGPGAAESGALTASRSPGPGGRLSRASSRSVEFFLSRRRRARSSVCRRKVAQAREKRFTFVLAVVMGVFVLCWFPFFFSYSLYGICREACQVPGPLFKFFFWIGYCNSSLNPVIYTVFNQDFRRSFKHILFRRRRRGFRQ

[19] = molecular target: Delta-type opioid receptor (Homo sapiens, UniProt P41143); test: Binding affinity at human DOR assessed as inhibition constant
Delta-type opioid receptor, sequence (P41143 whole entry): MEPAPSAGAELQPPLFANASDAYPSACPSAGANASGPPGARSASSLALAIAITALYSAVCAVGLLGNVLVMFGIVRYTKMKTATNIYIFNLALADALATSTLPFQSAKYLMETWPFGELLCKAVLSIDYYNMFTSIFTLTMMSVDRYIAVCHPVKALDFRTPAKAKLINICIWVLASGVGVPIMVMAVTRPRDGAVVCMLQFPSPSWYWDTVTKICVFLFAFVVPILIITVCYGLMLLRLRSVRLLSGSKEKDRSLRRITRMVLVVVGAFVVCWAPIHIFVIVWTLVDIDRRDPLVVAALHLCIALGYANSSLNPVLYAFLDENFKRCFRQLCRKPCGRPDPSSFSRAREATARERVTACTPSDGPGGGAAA

[20] = molecular target: Alpha-1B adrenergic receptor (Homo sapiens, UniProt P35368); test: Binding affinity to human alpha 1B adrenergic receptor assessed as inhibition constant
Alpha-1B adrenergic receptor, sequence (P35368 whole entry): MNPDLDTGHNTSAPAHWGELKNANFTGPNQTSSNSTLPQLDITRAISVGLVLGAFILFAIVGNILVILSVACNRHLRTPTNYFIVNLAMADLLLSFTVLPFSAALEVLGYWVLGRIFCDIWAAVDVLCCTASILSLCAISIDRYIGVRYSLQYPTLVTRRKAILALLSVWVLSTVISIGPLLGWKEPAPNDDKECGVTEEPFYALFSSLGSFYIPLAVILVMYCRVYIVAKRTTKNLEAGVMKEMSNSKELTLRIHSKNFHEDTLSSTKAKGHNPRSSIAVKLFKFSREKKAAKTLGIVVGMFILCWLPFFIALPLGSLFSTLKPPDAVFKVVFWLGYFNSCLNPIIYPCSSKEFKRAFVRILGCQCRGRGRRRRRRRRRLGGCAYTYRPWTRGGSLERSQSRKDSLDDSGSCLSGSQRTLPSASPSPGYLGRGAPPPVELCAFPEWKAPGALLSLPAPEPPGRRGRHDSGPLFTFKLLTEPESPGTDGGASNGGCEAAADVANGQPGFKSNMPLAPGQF

D(2) dopamine receptor = D(2) dopamine receptor (Homo sapiens, UniProt P14416); test: Binding affinity to human dopamine D2 receptor assessed as inhibition constant
D(2) dopamine receptor, sequence (P14416 whole entry): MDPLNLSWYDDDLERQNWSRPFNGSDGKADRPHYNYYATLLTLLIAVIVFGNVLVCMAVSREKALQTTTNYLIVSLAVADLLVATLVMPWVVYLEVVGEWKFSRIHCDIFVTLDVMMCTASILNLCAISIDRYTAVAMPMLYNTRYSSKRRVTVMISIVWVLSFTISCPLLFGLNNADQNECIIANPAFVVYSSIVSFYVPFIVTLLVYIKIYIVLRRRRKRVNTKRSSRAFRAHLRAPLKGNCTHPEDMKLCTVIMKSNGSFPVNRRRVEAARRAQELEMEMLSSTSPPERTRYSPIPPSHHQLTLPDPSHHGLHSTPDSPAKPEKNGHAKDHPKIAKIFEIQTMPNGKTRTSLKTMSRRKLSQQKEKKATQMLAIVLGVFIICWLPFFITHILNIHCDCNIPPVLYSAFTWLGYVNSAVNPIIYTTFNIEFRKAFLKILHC

[21] = Binding affinity to human Ca2+ ion channel assessed as inhibition constant
[22] = molecular target: Serotonin 3 (5-HT3) receptor; test: Binding affinity to human 5HT3 receptor assessed as inhibition constant; assay type: protein-complex assay
[23] = molecular target: Beta-3 adrenergic receptor (Homo sapiens, UniProt P13945); test: Binding affinity to human beta 3 adrenergic receptor assessed as inhibition constant
Beta-3 adrenergic receptor, sequence (P13945 whole entry): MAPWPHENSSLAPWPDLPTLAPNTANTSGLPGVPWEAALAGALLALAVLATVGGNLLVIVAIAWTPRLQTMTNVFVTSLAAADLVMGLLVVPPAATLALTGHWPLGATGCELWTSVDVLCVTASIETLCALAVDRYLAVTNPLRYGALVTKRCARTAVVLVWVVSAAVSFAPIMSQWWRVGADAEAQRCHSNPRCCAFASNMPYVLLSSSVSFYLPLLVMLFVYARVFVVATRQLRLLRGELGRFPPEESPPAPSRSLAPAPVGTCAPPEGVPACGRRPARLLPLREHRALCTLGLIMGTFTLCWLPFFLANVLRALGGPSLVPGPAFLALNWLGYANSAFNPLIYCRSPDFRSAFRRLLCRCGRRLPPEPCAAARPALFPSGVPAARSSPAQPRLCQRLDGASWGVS

[24] = molecular target: 5-hydroxytryptamine receptor 1E (Homo sapiens, UniProt P28566); test: Binding affinity to human 5HT1E receptor assessed as inhibition constant
5-hydroxytryptamine receptor 1E, sequence (P28566 whole entry): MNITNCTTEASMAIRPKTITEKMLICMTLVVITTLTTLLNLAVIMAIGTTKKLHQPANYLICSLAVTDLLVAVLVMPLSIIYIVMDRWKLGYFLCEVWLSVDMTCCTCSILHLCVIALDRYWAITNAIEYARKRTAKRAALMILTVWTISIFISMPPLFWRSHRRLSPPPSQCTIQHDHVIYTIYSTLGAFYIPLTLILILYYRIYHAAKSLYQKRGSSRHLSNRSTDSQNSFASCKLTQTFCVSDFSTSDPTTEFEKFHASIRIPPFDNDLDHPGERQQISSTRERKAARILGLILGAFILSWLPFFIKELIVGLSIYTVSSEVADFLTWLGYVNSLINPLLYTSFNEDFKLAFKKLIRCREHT

[25] = Selectivity ratio of Ki for displacement of [3H]-ditolylguanidine from human sigma 2 receptor/TMEM97 transfected in HEK293 cells to Ki for displacement of [3H]-ditolylguanidine from sigma 2 receptor/TMEM97 in rat PC-12 cells; assay type: cell-based
[26] = Selectivity ratio of Ki for displacement of [3H](+)-pentazocine from sigma 1 receptor in guinea pig brain to Ki for displacement of [3H](+)-pentazocine from human sigma 1 receptor transfected in HEK293 cells; assay type: cell-based
Translocator protein = Translocator protein (Homo sapiens, UniProt P30536); test: Binding affinity at human PBR assessed as inhibition constant
Translocator protein, sequence (P30536 whole entry): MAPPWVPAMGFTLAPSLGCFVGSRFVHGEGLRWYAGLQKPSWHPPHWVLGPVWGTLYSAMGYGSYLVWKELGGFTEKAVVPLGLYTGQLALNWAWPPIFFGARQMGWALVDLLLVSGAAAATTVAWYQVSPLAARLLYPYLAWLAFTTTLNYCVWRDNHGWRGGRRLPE

[27] = molecular target: Sodium-dependent serotonin transporter (Homo sapiens, UniProt P31645); test: Binding affinity at human SERT assessed as inhibition constant
[28] = Half-life in mouse at 10 mg/kg, ip; assay type: ADME, organism-based; settings: in vivo
[29] = Drug concentration in mouse brain at 10 mg/kg, ip measured after 4 hrs; assay type: ADME, organism-based; settings: read-out: Ct
[30] = Ratio of drug concentration in mouse brain to plasma at 10 mg/kg, ip measured after 4 hrs; assay type: ADME, organism-based; settings: read-out: BPR
[31] = Ratio of unbound drug concentration in mouse brain to plasma at 10 mg/kg, ip measured after 4 hrs; assay type: ADME, organism-based; settings: read-out: K(p,uu,brain)
P-glycoprotein (MDR1) = test: Efflux ratio of permeability in MDCK-MDR1 cells expressing P-glycoprotein; assay type: ADME, cell-based, Canis lupus familiaris; settings: dog

Sigma non-opioid intracellular receptor 1 (Cavia porcellus, UniProt Q60492), sequence (Q60492 whole entry): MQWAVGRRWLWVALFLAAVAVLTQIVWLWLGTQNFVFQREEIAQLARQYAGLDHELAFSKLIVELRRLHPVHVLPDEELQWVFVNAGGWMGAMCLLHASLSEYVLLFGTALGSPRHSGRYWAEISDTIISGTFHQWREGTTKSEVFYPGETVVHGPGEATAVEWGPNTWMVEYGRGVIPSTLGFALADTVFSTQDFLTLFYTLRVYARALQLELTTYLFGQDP

SMILES: CCCN1CCN(c2ccc3c(c2)C(OC/C=C/c2ccccc2)CCC3)CC1 (configuration not stated)
- Ki [1]: 140 nM
- Ki [2]: 15 nM

SMILES: CCCN1CCN(c2ccc3c(c2)C(OCCCc2ccccc2)CCC3)CC1 (configuration not stated)
- Ki [1]: 21 nM
- Ki [2]: 17 nM

SMILES: CN(C(=O)OCc1ccccc1)C1CCCc2ccc(N3CCN(CCCO)CC3)cc21 (configuration not stated)
- Ki [3]: 21 nM
- Ki [1]: 474 nM

SMILES: CCOC(=O)CCN1CCN(c2ccc3c(c2)C(N(C)C(=O)OCc2ccccc2)CCC3)CC1 (configuration not stated)
- Ki [3]: 4.5 nM
- Ki [1]: 1650 nM

SMILES: CCCN1CCN(c2ccc3c(c2)C(N(CC)C(=O)OCc2ccccc2)CCC3)CC1 (configuration not stated)
- Ki [3]: 4.6 nM
- Ki [1]: 321 nM

SMILES: CCCN1CCN(c2ccc3c(c2)C(OCc2ccccc2)CCC3)CC1 (configuration not stated)
- Ki [3]: 50 nM
- Ki [1]: 104 nM

SMILES: CCN1CCN(c2ccc3c(c2)C(N(C)C(=O)OCc2ccccc2)CCC3)CC1 (configuration not stated)
- Ki [3]: 35 nM
- Ki [1]: 887 nM

SMILES: CCCN1CCN(c2ccc3c(c2)C(N(CCCO)C(=O)OCc2ccccc2)CCC3)CC1 (configuration not stated)
- Ki [1]: 254 nM
- Ki [2]: 135 nM

SMILES: CCCN1CCN(c2ccc3c(c2)C(N(CCC(=O)OCC)C(=O)OCc2ccccc2)CCC3)CC1 (configuration not stated)
- Ki [1]: 187 nM
- Ki [2]: 35 nM

SMILES: CN(C(=O)OCc1ccccc1)C1CCCc2ccc(N3CCN(C4CCC4)CC3)cc21 (configuration not stated)
- Ki [3]: 12 nM
- Ki [1]: 266 nM
- Ratio Ki [4]: 41

SMILES: CN(C(=O)OCc1ccccc1)C1CCCc2ccc(N3CCN(C4CCCC4)CC3)cc21 (configuration not stated)
- Ki [3]: 2.1 nM
- Ki [1]: 86 nM

SMILES: Clc1ccc2c(c1)C1CC2CCCN1CCc1ccccc1 (configuration not stated)
- Ki [5]: 23 nM
- Ki [6]: 248 nM

SMILES: CCCN1CCN(c2ccc3c(c2)C(N(CCC)C(=O)OCc2ccccc2)CCC3)CC1 (configuration not stated)
- Ki [3]: 9.4 nM
- Ki [1]: 199 nM

SMILES: CN(C(=O)OCc1ccccc1)C1CCCc2ccc(N3CCN(C4CCCCC4)CC3)cc21 (configuration not stated)
- Ki [3]: 2.1 nM
- Ki [1]: 16 nM
- Ratio Ki [4]: 7.6

SMILES: CCCN1CCN(c2ccc3c(c2)C(N(C)C(=O)CCc2ccccc2)CCC3)CC1 (configuration not stated)
- Ki [1]: 973 nM
- Ki [2]: 17 nM
- Ratio Ki [7]: 2

SMILES: CCCN1CCN(c2ccc3c(c2)C(N(CCCCCCCCCCCN)C(=O)OCc2ccccc2)CCC3)CC1 (configuration not stated)
- Ki [3]: 16.6 nM

SMILES: COCCN1CCN(c2ccc3c(c2)C(N(C)C(=O)OCc2ccccc2)CCC3)CC1 (configuration not stated)
- Ki [1]: 1050 nM
- Ki [2]: 128 nM

SMILES: CCOC(=O)CN1CCN(c2ccc3c(c2)C(N(C)C(=O)OCc2ccccc2)CCC3)CC1 (configuration not stated)
- Ki [3]: 894 nM
- Ki [1]: > 10000 nM

SMILES: CC(C)N1CCN(c2ccc3c(c2)C(N(C)C(=O)OCc2ccccc2)CCC3)CC1 (configuration not stated)
- Ki [3]: 8.3 nM
- Ki [1]: 223 nM

SMILES: CCCN1CCN(c2cccc3c2CCCC3N(C)C(=O)OCc2ccccc2)CC1 (configuration not stated)
- Ki [3]: 26 nM
- Ki [1]: 12 nM

SMILES: CCCN1CCN(c2ccc3c(c2)C(N(C)C(=O)/C=C/c2ccccc2)CCC3)CC1 (configuration not stated)
- Ki [2]: 9.6 nM
- Ki [8]: 196 nM
- Ratio Ki [7]: 3.4

SMILES: CCN(CC)C(=O)CCN1CCN(c2ccc3c(c2)C(N(C)C(=O)OCc2ccccc2)CCC3)CC1 (configuration not stated)
- Ki [3]: 7.2 nM
- Ki [1]: 2100 nM

SMILES: CCCN1CCN(c2ccc3c(c2)CCCC3N(C)C(=O)OCc2ccccc2)CC1 (configuration not stated)
- Ki [3]: 13 nM
- Ki [1]: 40 nM

SMILES: CN1CCN(c2ccc3c(c2)C(N(C)C(=O)OCc2ccccc2)CCC3)CC1 (configuration not stated)
- Ki [3]: 284 nM
- Ki [1]: 2940 nM

SMILES: CCCN1CCN(c2ccc3c(c2)C(N(C)C(=O)Cc2ccccc2)CCC3)CC1 (configuration not stated)
- Ki [2]: 53 nM
- Ki [8]: 188 nM

SMILES: CCCN1CCN(c2ccc3c(c2)C(OC(=O)CCc2ccccc2)CCC3)CC1 (configuration not stated)
- Ki [3]: 25 nM
- Ki [1]: 33 nM

SMILES: CCCN1CCN(c2ccc3c(c2)C(N(C)C(=O)OCc2ccccc2)CCC3)CC1 (configuration not stated)
- Ki [9]: > 10000 nM
- Ki (Mu-type opioid receptor): > 10000 nM
- Ki [10]: > 10000 nM
- Ki [11]: > 10000 nM
- Ki [12]: > 10000 nM
- Ki [13]: > 10000 nM
- Ki [14]: > 10000 nM
- Ki [15]: > 10000 nM
- Ki [16]: > 10000 nM
- Ki [17]: > 10000 nM
- Ki [18]: > 10000 nM
- Ki [19]: > 10000 nM
- Ki [20]: > 10000 nM
- Ki (D(2) dopamine receptor): > 10000 nM
- Ki [21]: > 10000 nM
- Ki [3]: 5.5 nM
- Ki [1]: 200 nM
- Ki [22]: > 10000 nM
- Ki [23]: > 10000 nM
- Ki [24]: > 10000 nM
- Ratio Ki [4]: 36
- Ratio Ki [25]: 6
- Ratio Ki [26]: 2.5
- Ki [2]: 33 nM
- Ki [8]: 82 nM
- Ki (Translocator protein): 8330 nM
- Ki [27]: > 10000 nM
- half-life [28]: 1.2 h
- concentration at 4 h [29]: 104 nM
- Kp at 4 h [30]: 2.8
- Kp uu at 4 h [31]: 0.36
- efflux ratio (P-glycoprotein (MDR1)): 1
